Measured values published in patent publication US20250255981A1, “IMMUNOMODULATORY ANTIBODY-DRUG CONJUGATES” (Seagen Inc., priority 2022, published 2025).

What was measured:
[1] = tested on: Renca cancer cells; assay: In vivo anti-tumor activity, Renca tumor model
Experimental: In some experiments, Renca tumor cells were engineered to express the indicated murine or human target antigen.
(§1) When tumor volumes reached 100 mm^3, the mice were dosed with either compounds or ADCs by intraperitoneal or intravenous injection at the indicated dosing schedule and tumor volumes were monitored twice weekly. Compounds were formulated in 40% PEG400 in saline.
(§2) A syngeneic system was used to assess the ability of the STING agonist ADCs to induce immune responses in vivo and drive an anti-tumor immune response. The Renca system is a subcutaneous, mouse renal adenocarcinoma model. Female Balb/c mice were implanted with 2×10^6 Renca cells subcutaneously in the flank on day 0. When mean tumor size of 100 mm^3 (measured by using the formula Volume (mm^3)=0.5*Length*Width^2 where length is the longer dimension) was reached mice were randomized into treatment groups of ≥5 mice per group. Animals were then treated intraperitoneally (ADCs or compounds) or intravenously (compounds) with the indicated treatment every 7 days, for 3 doses total (or as indicated). Tumor length and width and the weight of the animals was measured throughout the study and tumor volume was calculated using the formula above. Animals were followed until the tumor volume reached ˜1000 mm^3; animals were then euthanized.

[2] = tested on: wild type (WT) murine bone marrow-derived macrophages; assay: Bone marrow-derived macrophage assay, wild type; type: cell-based, mouse; conditions: 24 hours
Experimental: Potency of the compounds described herein was evaluated using mouse bone-marrow derived macrophages cultured from wild type (C57BL/6J, the Jackson Laboratory #000664) or STING-deficient (C57BL/6J-Sting1^gt/J, the Jackson Laboratory #017537) mice. Briefly, mouse bone marrow cells were cultured for 7-10 days in RPMI-1640 (Gibco) with 10% heat-inactivated fetal bovine serum, Pen-Strep (100 U/mL-100 […], Gibco), HEPES (10 mM, Gibco), sodium pyruvate (1 mM, Gibco), GlutaMAX (1×, Gibco), beta-mercaptoethanol ([…], Gibco) and 20-40 ng/mL murine M-CSF (Peprotech, #315-02). Cells were plated in a 96-well flat bottom tissue culture-treated clear polystyrene plate (Corning Costar #3596) at ˜100,000 cells per well in 200 μL with the indicated concentration of the compound. The supernatant was harvested at 24 hours and cytokines were measured using a Milliplex MAP mouse cytokine/chemokine magnetic bead panel assay kit (MCYTOMAG-70k custom 11-plex kit: MCP1, MIP1α, MIP1β, TNFα, IFNγ, IL-10, IL-12p70, IL-1β, IL-6, IP10, RANTES) and analyzed using a Luminex™ MAGPIX™ Instrument System.

[3] = tested on: THP1-Dual™ cells (IRF-Lucia luciferase reporter); assay: THP1-Dual™ cell reporter assay; type: cell-based, human; conditions: free drug, 24 h (48 h elsewhere in the source)
How it was run: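 THP1-Dual cells (~100,000 per well) exposed to compound or ADC in supplemented RPMI-1640 with 10% FBS; supernatant taken at 24 h for compounds or 48 h for ADCs. Secreted IRF-driven Lucia luciferase measured by luminescence with QUANTI-Luc reagent.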

[4] = tested on: Renca tumor-bearing mice; assay: In vivo cytokine assay, Renca tumor-bearing mice; design: species or system mouse; conditions: for systemic pro-inflammatory cytokine (IL-6 and TNF) production: plasma; for IFNγ in plasma / IL1β in plasma / IL12p70 in plasma / IL-6 in plasma / IL-10 in plasma / IP10 in plasma / MCP-1 in plasma / MIP1α in plasma / MIP1β in plasma: 1.86 mg/kg
Experimental: Cytokines were measured in mouse plasma harvested at 3, 6, 24, or 48 hours after treatment with compounds or ADCs using a Milliplex MAP mouse cytokine/chemokine magnetic bead panel assay kit (MCYTOMAG-70k custom 11-plex kit: MCP1, MIP1a, MIP1(3, TNFα, IFNγ, IL-10, IL-12p70, IL-6, IL-1β, IP10, RANTES) and analyzed using a Luminex™ MAGPIX™ Instrument System. Values that were outside of the standard curve range (<3.2 or […]) were either excluded from calculation of the mean values or, when indicated, converted to […] for calculation of the mean values.
Renca cancer cells (ATCC) were cultured in RPMI-1640 (ATCC) with 10% heat-inactivated fetal bovine serum, Pen-Strep (100 U/mL-100 μg/mL), MEM non-essential amino acids (1×), sodium pyruvate (1 mM), and L-glutamine (2 mM). Renca cancer cells were implanted (2*10^6 cells in 200 μL 25% Matrigel) subcutaneously into Balb/c female mice. In some experiments, Renca tumor cells were engineered to express the indicated murine or human target antigen.
as §1, §2

[5] = tested on: human CD228-LL2 tumor-bearing mice; assay: In vivo cytokine assay, human CD228-LL2 tumor-bearing mice; design: species or system mouse
Experimental: Cytokines were measured in mouse plasma harvested at 3, 6, 24, or 48 hours after treatment with compounds or ADCs using a Milliplex MAP mouse cytokine/chemokine magnetic bead panel assay kit (MCYTOMAG-70k custom 11-plex kit: MCP1, MIP1a, MIP1(3, TNFα, IFNγ, IL-10, IL-12p70, IL-6, IL-1β, IP10, RANTES) and analyzed using a Luminex™ MAGPIX™ Instrument System. Values that were outside of the standard curve range (<3.2 or >10,000 μg/mL) were either excluded from calculation of the mean values or, when indicated, converted to 3.2 or 10,000 μg/mL for calculation of the mean values.
LL2 cancer cells were engineered using lentiviral transduction to express human CD228. LL2 cells were cultured in DMEM (ATCC) with 10% heat-inactivated fetal bovine serum. Female C57BL/6 mice were implanted with 1×10^6 hCD228-LL2 tumor cells in 100 μL 25% Matrigel in RPMI 1640 medium subcutaneously. Once tumor volumes reached 100 mm^3, mice were randomized into treatment groups and dosed as indicated. […] Stock concentrations of mAb or conjugates were diluted to a desired concentration (with 20 mM His, 6% Trehalose or 0.01% Tween20 in PBS) and injected intraperitoneally (i.p.) or intravenously (i.v.) as indicated. The small molecule was formulated in 40% PEG400 in saline and injected i.v.

[6] = dose 1, 6 h, 0.08 mg/kg Q7Dx3 i.v.
[7] = dose 1, 6 h, 1.5 mg/kg Q7Dx3 i.v.
[8] = dose 2, 6 h, 0.08 mg/kg Q7Dx3 i.v.
[9] = dose 2, 6 h, 1.5 mg/kg Q7Dx3 i.v.
[10] = dose 3, 6 h, 0.08 mg/kg Q7Dx3 i.v.
[11] = dose 3, 6 h, 1.5 mg/kg Q7Dx3 i.v.

## CCn1nc(C)cc1C(=O)Nc1nc2cc(C(N)=O)cc(OC)c2n1C/C=C/Cn1c(NC(=O)c2cc(C)nn2CC)nc2cc(C(N)=O)cc(OCCCNC)c21 [Compound 12a]
[1]; Renca, q7dx3
  tumor growth / anti-tumor activity: limited anti-tumor efficacy
[2]
  cytokine production: induced cytokine production
[3]
  relative potency of free drug, Lucia reporter: less potent than compound 1 and compound A
[4]
  systemic pro-inflammatory cytokine (IL-6 and TNF) production: induced robust production of IL-6 and TNF

## CCn1nc(C)cc1C(=O)Nc1nc2cc(C(N)=O)cc(OC)c2n1C/C=C/Cn1c(NC(=O)c2cc(C)nn2CC)nc2cc(C(N)=O)cc(OCCCN3CCOCC3)c21.O=C(O)C(F)(F)F.O=C(O)C(F)(F)F.O=C(O)C(F)(F)F [Compound A, (E)-1-(4-(5-carbamoyl-2-(1-ethyl-3-methyl-1H-pyrazole-5-carboxamido)-7-(3-morpholinopropoxy)-1H-benzo[d]imidazol-1-yl)but-2-en-1-yl)-2-(1-ethyl-3-methyl-1H-pyrazole-5-carboxamido)-7-methoxy-1H-benzo[d]imidazole-5-carboxamide tris(2,2,2-trifluoroacetate)]
[1]; Renca tumor-bearing mice
  tolerability: less well tolerated
[1]; after the 2nd dose
  average weight loss: 6.2%
[3]
  relative potency of free drug, Lucia reporter: significantly more potent than (2′, 3′)-Rp,Rpc-diAMPS disodium (Compound B)
[5]; [6]
  IFNg, peripheral blood (plasma), mean: 9.8 pg/mL
  IL1b, peripheral blood (plasma), mean: 12.1 pg/mL
  IL-6, peripheral blood (plasma), mean: 346.7 pg/mL
  IL-10, peripheral blood (plasma), mean: 15.8 pg/mL
  IL-12p70, peripheral blood (plasma), mean: 3.0 pg/mL
  IP10, peripheral blood (plasma), mean: 7501.0 pg/mL
  MCP-1, peripheral blood (plasma), mean: 3780.5 pg/mL
  MIP1a, peripheral blood (plasma), mean: 107.1 pg/mL
  MIP1b, peripheral blood (plasma), mean: 474.6 pg/mL
  RANTES, peripheral blood (plasma), mean: 33.9 pg/mL
  TNFa, peripheral blood (plasma), mean: 11.0 pg/mL
[5]; [7]
  IFNg, peripheral blood (plasma), mean: 392.4 pg/mL
  IL1b, peripheral blood (plasma), mean: 38.0 pg/mL
  IL-6, peripheral blood (plasma), mean: 10532.0 pg/mL
  IL-10, peripheral blood (plasma), mean: 71.5 pg/mL
  IL-12p70, peripheral blood (plasma), mean: 32.3 pg/mL
  IP10, peripheral blood (plasma), mean: >10000 pg/mL
  MCP-1, peripheral blood (plasma), mean: 10000.0 pg/mL
  MIP1a, peripheral blood (plasma), mean: 574.2 pg/mL
  MIP1b, peripheral blood (plasma), mean: 4253.1 pg/mL
  RANTES, peripheral blood (plasma), mean: 1705.3 pg/mL
  TNFa, peripheral blood (plasma), mean: 95.7 pg/mL
[5]; [8]
  IFNg, peripheral blood (plasma), mean: 11.7 pg/mL
  IL1b, peripheral blood (plasma), mean: 26.2 pg/mL
  IL-6, peripheral blood (plasma), mean: 936.6 pg/mL
  IL-10, peripheral blood (plasma), mean: 9.5 pg/mL
  IL-12p70, peripheral blood (plasma), mean: 9.7 pg/mL
  IP10, peripheral blood (plasma), mean: 9045.3 pg/mL
  MCP-1, peripheral blood (plasma), mean: 7114.6 pg/mL
  MIP1a, peripheral blood (plasma), mean: 206.0 pg/mL
  MIP1b, peripheral blood (plasma), mean: 1550.3 pg/mL
  RANTES, peripheral blood (plasma), mean: 236.6 pg/mL
  TNFa, peripheral blood (plasma), mean: 18.4 pg/mL
[5]; [9]
  IFNg, peripheral blood (plasma), mean: 1550.6 pg/mL
  IL1b, peripheral blood (plasma), mean: 57.4 pg/mL
  IL-6, peripheral blood (plasma), mean: 22725.1 pg/mL
  IL-10, peripheral blood (plasma), mean: 92.3 pg/mL
  IL-12p70, peripheral blood (plasma), mean: 75.4 pg/mL
  IP10, peripheral blood (plasma), mean: >10000 pg/mL
  MCP-1, peripheral blood (plasma), mean: >10000 pg/mL
  MIP1a, peripheral blood (plasma), mean: 846.6 pg/mL
  MIP1b, peripheral blood (plasma), mean: 5235.4 pg/mL
  RANTES, peripheral blood (plasma), mean: 1906.1 pg/mL
  TNFa, peripheral blood (plasma), mean: 204.0 pg/mL
[5]; [10]
  IFNg, peripheral blood (plasma), mean: 21.9 pg/mL
  IL1b, peripheral blood (plasma), mean: 66.6 pg/mL
  IL-6, peripheral blood (plasma), mean: 1494.7 pg/mL
  IL-10, peripheral blood (plasma), mean: 36.3 pg/mL
  IL-12p70, peripheral blood (plasma), mean: 220.3 pg/mL
  IP10, peripheral blood (plasma), mean: 7718.5 pg/mL
  MCP-1, peripheral blood (plasma), mean: 5009.1 pg/mL
  MIP1a, peripheral blood (plasma), mean: 270.0 pg/mL
  MIP1b, peripheral blood (plasma), mean: 1009.6 pg/mL
  RANTES, peripheral blood (plasma), mean: 172.9 pg/mL
  TNFa, peripheral blood (plasma), mean: 29.6 pg/mL
[5]; [11]
  IFNg, peripheral blood (plasma), mean: 1236.8 pg/mL
  IL1b, peripheral blood (plasma), mean: 36.8 pg/mL
  IL-6, peripheral blood (plasma), mean: 14635.1 pg/mL
  IL-10, peripheral blood (plasma), mean: 62.8 pg/mL
  IL-12p70, peripheral blood (plasma), mean: 43.9 pg/mL
  IP10, peripheral blood (plasma), mean: >10000 pg/mL
  MCP-1, peripheral blood (plasma), mean: >10000 pg/mL
  MIP1a, peripheral blood (plasma), mean: 743.4 pg/mL
  MIP1b, peripheral blood (plasma), mean: 4517.1 pg/mL
  RANTES, peripheral blood (plasma), mean: 2533.7 pg/mL
  TNFa, peripheral blood (plasma), mean: 195.3 pg/mL
[4]; 3 h after treatment
  IFNγ in plasma: 0.3 pg/mL
  IL1β in plasma: 1.5 pg/mL
  IL12p70 in plasma: 0.2 pg/mL
  IL-6 in plasma: 3550 pg/mL
  IL-10 in plasma: 0.5 pg/mL
  IP10 in plasma: 4780 pg/mL
  MCP-1 in plasma: 14500 pg/mL
  MIP1α in plasma: 1300 pg/mL
  MIP1β in plasma: 6370 pg/mL
[4]; 6 h after treatment
  IFNγ in plasma: 71.8 pg/mL
  IL1β in plasma: 0.6 pg/mL
  IL12p70 in plasma: 0.2 pg/mL
  IL-6 in plasma: 732 pg/mL
  IL-10 in plasma: < 3.2 pg/mL
  IP10 in plasma: 4980 pg/mL
  MCP-1 in plasma: 10800 pg/mL
  MIP1α in plasma: 209 pg/mL
  MIP1β in plasma: 2150 pg/mL
[4]; 24 h after treatment
  IFNγ in plasma: < 3.2 pg/mL
  IL1β in plasma: 0.3 pg/mL
  IL12p70 in plasma: < 3.2 pg/mL
  IL-6 in plasma: 16.4 pg/mL
  IL-10 in plasma: < 3.2 pg/mL
  IP10 in plasma: 890 pg/mL
  MCP-1 in plasma: 540 pg/mL
  MIP1α in plasma: 41.7 pg/mL
  MIP1β in plasma: 35.5 pg/mL
[4]
  systemic pro-inflammatory cytokine (IL-6 and TNF) production: induced robust production of IL-6 and TNF
